Values quoted from earlier work in US20030170332A1, “Flavonoid extract” (Enzo Nutraceuticals Limited., priority 2001, published 2003).

Legend:
[1] = system: DNA damage; details: for Protection against DNA damage: in vivo (Duthie et al. 1997; Sierens et al. 2001)
[2] = system: carbonyl levels of immunoglobulin

O=c1c(O)c(-c2ccc(O)c(O)c2)oc2cc(O)cc(O)c12 [quercetin]
DNA protection on increasing intake in the diet ([1]; in vivo (Beatty et al. 2000)): did not result in increased DNA protection
Protection against DNA damage [1]: did protect against DNA damage

O=c1c(O)c(-c2cc(O)c(O)c(O)c2)oc2cc(O)cc(O)c12 [myricetin]
Protection against DNA damage [1]: did protect against DNA damage

O=c1c(-c2ccc(O)cc2)coc2cc(O)cc(O)c12 [genistein]
Protection against DNA damage [1]: did protect against DNA damage

O=C1O[C@H]([C@@H](O)CO)C(O)=C1O [vitamin C]
Effect on protein oxidation of immunoglobulin ([2]; 5 weeks supplementation, 400 mg/day): no significant effect
Carbonyl levels of immunoglobulin ([2]; 10 and 15 weeks supplementation, subjects with low baseline ascorbate, not in those with normal base line ascorbate): significantly reduced

Oc1ccc([C@H]2COc3cc(O)ccc3C2)cc1 [equol]
Protection against DNA damage [1]: did protect against DNA damage
